Source: patent publication US20070082880A1 (priority 2005, published 2007)
Where a name gives a salt, the structure may show the parent alone.

Assays:
[1] = molecular target: T1, human PKCθ full length enzyme (Homo sapiens, UniProt Q04759); assay: PKCθ IMAP Assay; type: biochemical; conditions: average value when one or more samples were tested; ATP 6 uM, PKCθ 1 nM
T1 construct: human PKCθ full length enzyme (Panvera Catalog No. P2996); purchased Panvera P2996
Summary of the method: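 Full-length human PKCθ (1 nM final) with 6 uM ATP and 100 nM 5FAM-labelled peptide, 5% DMSO, 3.0 mM DTT in reaction buffer. 25 min at room temperature; IMAP bead binding 20 min, fluorescence polarization read. Compounds 2:1 serially diluted; no-ATP and no-enzyme wells as controls.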

T1 sequence (Q04759 whole entry): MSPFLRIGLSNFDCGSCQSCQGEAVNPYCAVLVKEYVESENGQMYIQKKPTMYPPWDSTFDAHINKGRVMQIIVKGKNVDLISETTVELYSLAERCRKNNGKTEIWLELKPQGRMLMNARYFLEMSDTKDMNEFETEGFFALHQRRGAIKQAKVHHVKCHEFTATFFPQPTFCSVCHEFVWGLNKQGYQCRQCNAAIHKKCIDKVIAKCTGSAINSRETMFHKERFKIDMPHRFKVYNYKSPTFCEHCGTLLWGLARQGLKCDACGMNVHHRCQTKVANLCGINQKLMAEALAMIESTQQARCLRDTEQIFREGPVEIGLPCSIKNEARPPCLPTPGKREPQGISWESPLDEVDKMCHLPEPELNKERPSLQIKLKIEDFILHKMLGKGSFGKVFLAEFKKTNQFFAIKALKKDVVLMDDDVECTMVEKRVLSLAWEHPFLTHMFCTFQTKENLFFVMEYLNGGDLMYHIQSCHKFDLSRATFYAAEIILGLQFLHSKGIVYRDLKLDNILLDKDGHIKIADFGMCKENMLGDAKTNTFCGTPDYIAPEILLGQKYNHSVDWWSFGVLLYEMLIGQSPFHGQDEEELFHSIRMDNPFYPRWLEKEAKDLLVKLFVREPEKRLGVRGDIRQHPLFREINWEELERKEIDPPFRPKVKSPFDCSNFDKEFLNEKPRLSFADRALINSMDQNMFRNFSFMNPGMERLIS

Work on Cl.N#Cc1cnc2sc(I)cc2c1Nc1ccc2[nH]ccc2c1 yielded a melting point of 250 to 252 °C.

Cl.N#Cc1cnc2sc(I)cc2c1Nc1cccc2[nH]ccc12 gave a melting point of over 245 °C.

Work on Br.N#Cc1cnc2scc(Br)c2c1Nc1ccc2[nH]ccc2c1 yielded a melting point of 249 to 251 °C.

Work on Cc1c(Nc2c(C#N)cnc3sc(C#C[Si](C)(C)C)cc23)ccc2[nH]ccc12 yielded a melting point of 258 to 260 °C.

For Cc1c(Nc2c(C#N)cnc3sc(/C=C/CN4CCOCC4)cc23)ccc2[nH]ccc12 (as salt: HCl) [Compound 275, 4-[(4-methyl-1H-indol-5-yl)amino]-2-[(1E)-3-morpholin-4-ylprop-1-en-1-yl]thieno[2,3-b]pyridine-5-carbonitrile], the melting point was 230 °C (dec.).

With Cc1c(Nc2c(C#N)cnc3sc(C4CCN(Cc5ccccc5)C4)cc23)ccc2[nH]ccc12 (stereo not shown) (as salt: HCl) [Compound 479, 2-(1-benzylpyrrolidin-3-yl)-4-[(4-methyl-1H-indol-5-yl)amino]thieno[2,3-b]pyridine-5-carbonitrile] the melting point was 185 °C (dec.).

Work on N#Cc1cnc2sc(I)cc2c1Nc1cccc2cc[nH]c12 [Compound 108, 4-(1H-indol-7-ylamino)-2-iodothieno[2,3-b]pyridine-5-carbonitrile] yielded a melting point of over 245 °C.

N#Cc1cnc2sc(-c3ccccc3)cc2c1NCc1ccc2[nH]ccc2c1 [Compound 124, 4-(1H-indol-5-ylmethylamino)-2-phenylthieno[2,3-b]pyridine-5-carbonitrile] gave an IC50 [1] of 3700 nM and a melting point of 219 to 221 °C.

In the case of N#Cc1cnc2sc(-c3ccccc3)cc2c1Oc1ccc2[nH]ccc2c1 [Compound 130, 4-(1H-indol-5-yloxy)-2-phenylthieno[2,3-b]pyridine-5-carbonitrile], the IC50 [1] is reported as 9300 nM and the melting point is reported as 219 to 221 °C.

With N#Cc1cnc2sc(-c3ccc(C=O)cc3)cc2c1Nc1cccc2[nH]ccc12 [Compound 136, 2-(4-formylphenyl)-4-(1H-indol-4-ylamino)thieno[2,3-b]pyridine-5-carbonitrile] the melting point was over 245 °C.

N#Cc1cnc2sc(-c3cccc(C=O)c3)cc2c1Nc1cccc2[nH]ccc12 [Compound 139, 2-(3-formylphenyl)-4-(1H-indol-4-ylamino)thieno[2,3-b]pyridine-5-carbonitrile] gave a melting point of over 245 °C.

N#Cc1cnc2sc(-c3ccccc3C=O)cc2c1Nc1cccc2[nH]ccc12 [Compound 142, 2-(2-formylphenyl)-4-(1H-indol-4-ylamino)thieno[2,3-b]pyridine-5-carbonitrile] showed a melting point of 137 to 139 °C.

N#Cc1cnc2sc(-c3cccc(C=O)c3)cc2c1Nc1ccc2[nH]ccc2c1 [Compound 144, 2-(3-formylphenyl)-4-(1H-indol-5-ylamino)thieno[2,3-b]pyridine-5-carbonitrile] showed a melting point of 221 to 223 °C.

N#Cc1cnc2sc(-c3ccccc3C=O)cc2c1Nc1ccc2[nH]ccc2c1 [Compound 184, 2-(2-formylphenyl)-4-(1H-indol-5-ylamino)thieno[2,3-b]pyridine-5-carbonitrile] gave a melting point of 222 to 224 °C.

Work on CN1CCN(CCC#Cc2cc3c(Nc4ccc5[nH]ccc5c4)c(C#N)cnc3s2)CC1 [Compound 221, 4-(1H-indol-5-ylamino)-2-[4-(4-methylpiperazin-1-yl)but-1-yn-1-yl]thieno[2,3-b]pyridine-5-carbonitrile] yielded an IC50 [1] of 170 nM and a melting point of 195 to 197 °C.

COC(=O)c1cc2c(Nc3ccc4[nH]ccc4c3C)c(C#N)cnc2s1 [Compound 245, methyl 5-cyano-4-[(4-methyl-1H-indol-5-yl)amino]thieno[2,3-b]pyridine-2-carboxylate] showed an IC50 [1] of 68 nM and a melting point of 255 °C.

Work on Cc1c(Nc2c(C#N)cnc3sc(C(=O)O)cc23)ccc2[nH]ccc12 [Compound 247, 5-cyano-4-[(4-methyl-1H-indol-5-yl)amino]thieno[2,3-b]pyridine-2-carboxylic acid] yielded an IC50 [1] of 219 nM and a melting point of 287 °C.

With N#Cc1cnc2sc(C(=O)O)cc2c1Nc1ccc2[nH]ccc2c1 [Compound 248, 5-cyano-4-(1H-indol-5-ylamino)thieno[2,3-b]pyridine-2-carboxylic acid] the IC50 [1] was 2050 nM and the melting point was over 250 °C.

In the case of Cc1c(Nc2c(C#N)cnc3sc(C(=O)N4CCCC4)cc23)ccc2[nH]ccc12 [Compound 249, 4-[(4-methyl-1H-indol-5-yl)amino]-2-(pyrrolidin-1-ylcarbonyl)thieno[2,3-b]pyridine-5-carbonitrile], the IC50 [1] is reported as 48 nM and the melting point is reported as 256 °C.

Molecule N#Cc1cnc2sc(CN3CCCC3)cc2c1Nc1ccc2[nH]ccc2c1 [Compound 267, 4-(1H-indol-5-ylamino)-2-(pyrrolidin-1-ylmethyl)thieno[2,3-b]pyridine-5-carbonitrile] has an IC50 [1] of 3210 nM and a melting point of 212 to 215 °C.

In the case of CCCCc1cc2c(Nc3ccc4[nH]ccc4c3)c(C#N)cnc2s1 [Compound 271, 2-butyl-4-(1H-indol-5-ylamino)thieno[2,3-b]pyridine-5-carbonitrile], the IC50 [1] is reported as 1160 nM and the melting point is reported as 210 °C.

Work on Cc1c(Nc2c(C#N)cnc3sc(-c4cc(F)cc(C(=O)N(C)C)c4)cc23)ccc2[nH]ccc12 [Compound 512, 3-{5-cyano-4-[(4-methyl-1H-indol-5-yl)amino]thieno[2,3-b]pyridin-2-yl}-5-fluoro-N,N-dimethylbenzamide] yielded an IC50 [1] of 38 nM.

Work on COCCOc1ccc(-c2cc3c(Nc4ccc5[nH]ccc5c4C)c(C#N)cnc3s2)cc1OCCOC [Compound 513, 2-[3,4-bis(2-methoxyethoxy)phenyl]-4-[(4-methyl-1H-indol-5-yl)amino]thieno[2,3-b]pyridine-5-carbonitrile] yielded an IC50 [1] of 1610 nM.

COc1ccc(C=O)c(-c2cc3c(Nc4ccc5[nH]ccc5c4C)c(C#N)cnc3s2)c1 [Compound 514, 2-(2-formyl-5-methoxyphenyl)-4-[(4-methyl-1H-indol-5-yl)amino]thieno[2,3-b]pyridine-5-carbonitrile] showed an IC50 [1] of 71 nM.

For COc1ccc(CN(C)C)c(-c2cc3c(Nc4ccc5[nH]ccc5c4C)c(C#N)cnc3s2)c1 [Compound 515, 2-{2-[(dimethylamino)methyl]-5-methoxyphenyl}-4-[(4-methyl-1H-indol-5-yl)amino]thieno[2,3-b]pyridine-5-carbonitrile], the IC50 [1] was 16 nM.

Work on CC(C)c1c(-c2cccc(CN(C)C)c2)sc2ncc(C#N)c(Nc3ccc4[nH]ccc4c3)c12 [Compound 516, 2-{3-[(dimethylamino)methyl]phenyl}-4-(1H-indol-5-ylamino)-3-isopropylthieno[2,3-b]pyridine-5-carbonitrile] yielded an IC50 [1] of 1210 nM.

COc1ccc(CNCCO)cc1-c1cc2c(Nc3ccc4[nH]ccc4c3C)c(C#N)cnc2s1 [Compound 517, 2-(5-{[(2-hydroxyethyl)amino]methyl}-2-methoxyphenyl)-4-[(4-methyl-1H-indol-5-yl)amino]thieno[2,3-b]pyridine-5-carbonitrile] gave an IC50 [1] of 2 nM.

For Cc1c(Nc2c(C#N)cnc3sc(-c4ccc(F)c(C(=O)N(C)C)c4)cc23)ccc2[nH]ccc12 [Compound 518, 5-{5-cyano-4-[(4-methyl-1H-indol-5-yl)amino]thieno[2,3-b]pyridin-2-yl}-2-fluoro-N,N-dimethylbenzamide], the IC50 [1] was 59 nM.

Cc1c(Nc2c(C#N)cnc3sc(-c4cccc(N5CCCS5(=O)=O)c4)cc23)ccc2[nH]ccc12 [Compound 519, 2-[3-(1,1-dioxidoisothiazolidin-2-yl)phenyl]-4-[(4-methyl-1H-indol-5-yl)amino]thieno[2,3-b]pyridine-5-carbonitrile] showed an IC50 [1] of 49 nM.

With Cc1c(Nc2c(C#N)cnc3sc(-c4ccc5[nH]ccc5c4)cc23)ccc2[nH]ccc12 [Compound 520, 2-(1H-indol-5-yl)-4-[(4-methyl-1H-indol-5-yl)amino]thieno[2,3-b]pyridine-5-carbonitrile] the IC50 [1] was 74 nM.

Cc1c(Nc2c(C#N)cnc3sc(-c4ccc5cc[nH]c5c4)cc23)ccc2[nH]ccc12 [Compound 521, 2-(1H-indol-6-yl)-4-[(4-methyl-1H-indol-5-yl)amino]thieno[2,3-b]pyridine-5-carbonitrile] gave an IC50 [1] of 37 nM.

Molecule Cc1ccc(S(=O)(=O)n2ccc3c(Cl)c(Nc4c(C#N)cnc5sc(I)cc45)cnc32)cc1 [Compound 522, 4-({4-chloro-1-[(4-methylphenyl)sulfonyl]-1H-pyrrolo[2,3-b]pyridin-5-yl}amino)-2-iodothieno[2,3-b]pyridine-5-carbonitrile] has an IC50 [1] of 14100 nM.

Cc1c(Nc2c(C#N)cnc3sc(-c4cccnn4)cc23)ccc2[nH]ccc12 [Compound 523, 4-[(4-methyl-1H-indol-5-yl)amino]-2-pyridazin-3-ylthieno[2,3-b]pyridine-5-carbonitrile] showed an IC50 [1] of 15 nM.

N#Cc1cnc2sc(-c3ccccc3)cc2c1Nc1cnc2[nH]ccc2c1Cl [Compound 524, 4-[(4-chloro-1H-pyrrolo[2,3-b]pyridin-5-yl)amino]-2-phenylthieno[2,3-b]pyridine-5-carbonitrile] gave an IC50 [1] of 48 nM.

COc1c(C=O)cccc1-c1cc2c(Nc3ccc4[nH]ccc4c3C)c(C#N)cnc2s1 [Compound 525, 2-(3-formyl-2-methoxyphenyl)-4-[(4-methyl-1H-indol-5-yl)amino]thieno[2,3-b]pyridine-5-carbonitrile] gave an IC50 [1] of 15 nM.

Molecule COc1c(CN(C)C)cccc1-c1cc2c(Nc3ccc4[nH]ccc4c3C)c(C#N)cnc2s1 [Compound 526, 2-{3-[(dimethylamino)methyl]-2-methoxyphenyl}-4-[(4-methyl-1H-indol-5-yl)amino]thieno[2,3-b]pyridine-5-carbonitrile] has an IC50 [1] of 12 nM.

Cc1c(Nc2c(C#N)cnc3sc(-c4ccnn4C)cc23)ccc2[nH]ccc12 [Compound 527, 4-[(4-methyl-1H-indol-5-yl)amino]-2-(1-methyl-1H-pyrazol-5-yl)thieno[2,3-b]pyridine-5-carbonitrile] gave an IC50 [1] of 35 nM.
